Legend:
[1] = system: DLD (DLD-1): human colon adenocarcinoma; assay: In vitro anticancer assay (cytotoxicity), solid tumor cells
KB cell = details: Table 1; cited from earlier work
[2] = system: NCI (NCI-H661): human lung large cell carcinoma; assay: In vitro anticancer assay (cytotoxicity), solid tumor cells
Hep2,2,15 = details: Hep2,2,15, Table 1; cited from earlier work

N#Cc1ccccc1C#C/C=C\C#CCCCOC1CCCCO1 (stereo not shown) [Compound 2, 2-(9-(Tetrahydropyranyloxy)-3(Z)-nonen-1,5-diynyl)-benzonitrile]
IC50 Values of Cytotoxicities [1]: — (“—” means IC50 > 20 μg/ml)
IC50 (KB cell): < 0.01 µM
IC50 Values of Cytotoxicities [2]: — (“—” means IC50 > 20 μg/ml)
IC50 (Hep2,2,15): > 10 µM
